The test system of data set [1] is S10-resistant GSCs (U3013MG). The data set is described as follows: Viability of S10-resistant GSCs surviving the shRNA screen. The format is cell-based. As to conditions: Homo sapiens, cells surviving 14 μM S10 after shRNA library transduction, read-out: EC50 on GSC viability, S10-resistant GSCs. An excerpt:
A genome wide screen with shRNA libraries was used to identify pathways for S10 induced macropinocytosis. The approach was based on the idea that depleting a key factor in the pathway should render GSCs refractive to S10 induced death. Three different DECIPHER pooled lentiviral shRNA libraries consisting of 82500 shRNA covering 15377 genes grouped into Human Module 1 (genes associated with various signaling pathways), Human Module 2 (disease-associated genes) and Human Module 3 (genes associated with cell surface, extracellular and DNA binding), were used to transduce U3013MG GSCs. Four days later, 14 μM S10 was added for one day after which cells were cultured in standard medium for five month. Surviving cells were thereafter dissociated and further expanded. […] Phospho-MKK4 increased within 5 min of S10 exposure and remained at similar levels for at least 26 hrs of stimulation. Abrogation of MAP2K4 activity by five independent shRNAs led to marked increase of the EC50 viability value of S10-treated GSC. […] MKK4 was thereafter confirmed as a required protein for S10 induced macropinocytosis. […] Thus, the distinctive feature of susceptibility to macropinocytosis and death in GSCs require MKK4 activity.
GSCs grown to 70% confluency were transduced by DECIPHER pooled lentiviral shRNA libraries consisting of Human Module 1, 2 and 3 using earlier described protocols (Pasini et al., 2008). […]

Data set [2] in a line: In vivo pharmacokinetics studies of S10 (iv, ip, per oral). Also noted: species or system male BALB/c Mice. The following applies: male, BALB/c, mouse, ip and per oral administration. How it is done:
(§1) The bioavailability of S10 by oral and intraperitoneal injection in vivo was investigated. […] In a second delivery regimen, treatment was performed per orally (20 mg/kg) twice daily for five days. Treatment started at a terminal stage of GBM, i.e. six weeks after engraftment of U3013M GSCs and median survival from the time of treatment initiation and the Hazard ratio were scored.
In vivo pharmacokinetic studies of S10 were performed at SAI Life Sciences Ltd., Hyderabad, India to determine the plasma pharmacokinetics and brain distribution of S10 following a single intravenous, intraperitoneal and oral administration in male BALB/c Mice. Blood samples (approximately 60 μL) were collected from retro-orbital plexus of each mouse. The plasma and brain samples were obtained at 0.08, 0.25, 0.5, 1, 2, 4, 8, 24, 48, 72 and 144 hr (i.v.); 0.08, 0.25, 0.5, 1, 2, 4, 8 and 24 hour (i.p.) and 0.25, 0.5, 1, 2, 4, 6, 8, 24, 48, 72 and 144 hr (p.o.) post dosing. Plasma was harvested by centrifugation of blood and stored at −70° C. until analysis. Immediately after collection of blood, brain samples were collected from each mouse. Tissue samples (brain) were homogenized using ice-cold phosphate buffer saline (pH 7.4) and homogenates were stored below −70° C. until analysis. […] Plasma and brain samples were quantified using LC-MS/MS method LLOQ=1.03 ng/mL for plasma and LLOQ=10.25 ng/mL for brain. […]

In data set [3] the test system is U3013MG GSC xenograft. The data set is described as follows: Mouse Kaplan-Meier experiment, oral S10 at terminal stage of GBM. The format is in vivo, NOD-SCID mice. As to conditions: 20 mg/kg per orally for five days. How it is done:
as §1
For Kaplan-Meier experiments, 100,000 GSC from U3013MG we injected into NOD-SCID mice as described above. Mice were then monitored for 6 weeks and then oral administration regiment was started. Mice were either given 200 μl of water or S10 in water corresponding to 20 mg/kg, via oral gavage. A total of nine animals were taken for each treatment (control, S10). The oral administration was followed once a day for five days following which the administration was stopped and the animals monitored till they reach the humane end point, after which they were sacrificed.

For data set [4], the system named is ex-vivo adult zebrafish hearts. Kind of data set: Cardiotoxicity, ex vivo adult zebrafish hearts. As to conditions: frequency spectral analysis of heart beating. As for the experimental part:
A xenotransplantation model for GBM in zebrafish was developed to test the capacity of the 17 hits to prevent tumor formation in vivo. Three thousand U3013MG GSCs labeled with cell tracker red were injected intracranially into the ventricle of 48-52 hpf larvae. Each of the 17 hits were administered to the egg water at the lowest effective in vitro cytotoxic concentration identified and tumor development assessed 10 days later. This assay allowed rapid evaluation of the compounds in an in vivo setup, features such as the acute/chronic toxicity effect of the compounds on zebrafish and the transplanted cells, transplanted cell proliferation and migration of cells into brain parenchyma, compounds penetrance into the zebrafish tissue were all parallely evaluated. […] Cardiovascular toxicity was assessed using a recently established model based on frequency spectral analysis of heart beating in ex-vivo adult zebrafish hearts (Kitambi et al., (2012) BMC Physiol. 12, 3).
A zebrafish model was used to assess the developmental and cardiac toxicity of advanced hits from the screen. […] The embryos were monitored every day and allowed to grow for 5 days before the phenotype was recorded. […] Adult hearts from male zebrafish were exposed to compounds and the effect on the heart beat was recorded and analysed using developed methods (Kitambi et al., (2012) BMC Physiol. 12, 3).

A short description of data set [5]: Tolerance of oral dosing of S10. Format: in vivo. As to conditions: 20 mg/kg/day oral gavage for one week, weight loss and signs of distress.

We go through one compound from patent publication US20160214958A1, “COMPOUNDS AND USE FOR TREATING CANCER” (GLIONOVA AB, priority 2013, published 2016).

Molecules are shown by their SMILES.

Consider `OC(c1cc(-c2ccc(Cl)cc2)nc2ccccc12)C1CCCCN1` (racemic) [Compound S10, (2-(4-chlorophenyl)quinolin-4-yl)(piperidin-2-yl)methanol], for which, in data set [1], the half-maximal effective concentration (EC50) – broadly, the concentration needed to bring the measured effect to its halfway point – amounted to 14.3 ± 1.16 µM. For the same compound, the bioavailability (commonly the share of a dose that reaches the circulation, judged against a reference dose that is usually intravenous) in data set [2] (plasma, following iv, read-out: bioavailability F) came to 69%. The half-life in data set [2] (plasma and brain exposure following iv, read-out: half-life t1/2 (converted)) is 1200 min. In addition, the “Hazard ratio (rate of death untreated vs S10 treated group)” value in data set [3] (comparison of the two survival curves) is 2.293. In addition, the “median survival from the time of treatment initiation” value in data set [3] (start six weeks after engraftment, n=9, DMSO treated animals 7 days) is on record as 12 days. The “cardiac toxicity, heart beating” value in data set [4] is recorded as “small or no effects”. Also, in data set [5], the “tolerance of oral dosing” value is “well tolerated”.
